Measurements reported in publication PMC5030486, “Neprilysin is a Mediator of Alternative Renin-Angiotensin-System Activation in the Murine and Human Kidney” (Scientific Reports, 2016).
Values belong to the compound of their own block, whether it stands above or below them. Ends that are not written are not given here. Peptide text beside a SMILES is read from it. * marks the point of attachment. Cbz = O=C(OCc1ccccc1)*

Columns and labels:
[1] = test system: Ang-(1-7) and Ang II formation from Ang I (NEP, PEP, ACE, chymase) in human kidney homogenates
Protocol: (§1) This study was approved by the Ethics Committee of the Medical University of Vienna (EK #1496/2014) and was performed in accordance to the good clinical practice guidelines. Written informed consent was obtained before biopsies were taken perioperative from 5 kidney donors in 2014. Renal biopsies were either snap frozen in liquid nitrogen for angiotensin metabolism analysis or fixed in formalin for histological examination.
Metabolic RAS analysis was performed by Attoquant Diagnostics GmbH, Vienna, Austria. Renal biopsies of mice and humans were extracted and homogenized in phosphate-buffered saline (PBS) using low-energy sonication. The metabolism of spiked Ang I, Ang II (Fisher Scientific) or recombinant murine AGT (Sino Biological Inc.) for the renin activity assay, respectively, was assayed in homogenates after ex vivo incubation at 37 °C in presence or absence of specific enzyme inhibitors. […] Aminopeptidase Inhibitor (10 μM, Sigma-Aldrich) was added to all samples.
The enzyme activity was calculated by determining the inhibitor sensitive part of product formation in incubated samples and is presented as a product formation in ng of the corresponding angiotensin product per μg protein per hour. In order to proof linearity of the assay in dependence of enzyme abundance, Ang I and Ang II metabolism were assayed in serial diluted kidney homogenates (Supplementary Fig. 6). All experiments were performed in the linear range of the assay.
(§2) Angiotensin peptide quantification by liquid chromatography tandem-mass spectrometry analysis (LC-MS/MS) was performed by Attoquant Diagnostics GmbH (Vienna, Austria) as previously described.

[2] = test system: Ang-(1-7) and Ang II formation from Ang I (NEP, PEP, ACE) in murine kidney homogenates; assay type: biochemical, mouse
Protocol: as §2

[3] = test system: murine plasma equilibrium angiotensin levels; experiment: Equilibrium plasma angiotensin metabolites in mice treated i.p. with NEP inhibitor; assay type: in vivo, mouse; details: 50 mg/kg i.p., 4 hours, mean ± s.e.m., n = 5
Protocol: (§3) 10 to 12 weeks old female wild-type with C57BL/6j background were maintained at the animal care facility of the University Duesseldorf, Germany under a 12 h light/dark cycle, normal chew (SNIFF, Soest) and tap water ad libitum. Vehicle (50% DMSO) or NEP-inhibitor (LBQ657 (Sigma-Aldrich): 50 mg/kg) were administrated i.p. 4 hours prior to kidney and heparin plasma sampling. Kidneys were obtained as given above, while heparin plasma was incubated for 30 min at 37 °C for equilibrium analysis, stabilized[38] and stored at −80 °C until shipment.
as §2

[4] = test system: murine kidney angiotensin levels; experiment: Renal angiotensin metabolites in mice treated i.p. with NEP inhibitor; assay type: in vivo, mouse; details: 50 mg/kg i.p.
Protocol: as §3, §2

[5] = test system: Ang-(1-7) formation from Ang II (ACE2, PCP) in murine kidney homogenates; experiment: Ang II turnover to Ang-(1-7) in murine kidney homogenates with and without enzyme inhibitors; assay type: biochemical, mouse; details: Ang II spike, 37 °C, LC-MS/MS, n = 4
Protocol: as §2

CES1 = details: liver; cited from earlier work
[6] = test system: Ang-(1-7) formation from Ang II (ACE2, PCP) in human kidney homogenates; experiment: Ang II turnover to Ang-(1-7) in human kidney biopsy homogenates; assay type: biochemical; details: human kidney biopsy homogenate, inhibitor sensitive formation rate of Fig. 2d, mean ± s.d., n = 5
Protocol: as §1
Metabolic RAS analysis was performed by Attoquant Diagnostics GmbH, Vienna, Austria. Renal biopsies of mice and humans were extracted and homogenized in phosphate-buffered saline (PBS) using low-energy sonication. The metabolism of spiked Ang I, Ang II (Fisher Scientific) or recombinant murine AGT (Sino Biological Inc.) for the renin activity assay, respectively, was assayed in homogenates after ex vivo incubation at 37 °C in presence or absence of specific enzyme inhibitors. […]
The enzyme activity was calculated by determining the inhibitor sensitive part of product formation in incubated samples and is presented as a product formation in ng of the corresponding angiotensin product per μg protein per hour. […]
as §2

NEP = target: T1, NEP (Mus musculus, UniProt Q61391); experiment: MALDI-Imaging of Ang I to Ang-(1-7) turnover in murine kidney cryo-sections; assay type: biochemical
T1 construct: Consecutive tissue sections were prepared from fresh frozen kidneys (n = 4); from tissue; host or cells: murine kidney cryo-sections (fresh frozen)
T1 sequence (Q61391 1-750): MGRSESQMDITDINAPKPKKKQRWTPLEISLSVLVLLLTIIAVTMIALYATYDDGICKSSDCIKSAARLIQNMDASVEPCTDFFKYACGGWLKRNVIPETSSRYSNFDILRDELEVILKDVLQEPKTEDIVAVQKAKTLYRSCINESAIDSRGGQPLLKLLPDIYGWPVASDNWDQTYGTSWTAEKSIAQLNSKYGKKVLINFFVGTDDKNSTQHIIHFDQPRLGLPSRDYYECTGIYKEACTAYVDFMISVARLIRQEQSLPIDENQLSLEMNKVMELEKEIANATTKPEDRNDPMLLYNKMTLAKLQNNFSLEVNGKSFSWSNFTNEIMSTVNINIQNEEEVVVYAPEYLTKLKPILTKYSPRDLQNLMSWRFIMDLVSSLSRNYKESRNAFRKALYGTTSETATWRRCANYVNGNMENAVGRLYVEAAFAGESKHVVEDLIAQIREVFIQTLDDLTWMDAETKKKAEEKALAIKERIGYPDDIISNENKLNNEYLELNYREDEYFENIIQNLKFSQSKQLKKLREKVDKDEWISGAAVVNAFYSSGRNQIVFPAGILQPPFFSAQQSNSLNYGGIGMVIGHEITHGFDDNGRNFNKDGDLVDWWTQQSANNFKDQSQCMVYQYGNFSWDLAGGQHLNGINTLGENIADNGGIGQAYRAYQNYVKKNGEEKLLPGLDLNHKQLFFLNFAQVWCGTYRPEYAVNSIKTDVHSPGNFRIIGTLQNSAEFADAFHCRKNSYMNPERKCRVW
Protocol: Consecutive tissue sections were prepared from fresh frozen kidneys (n = 4) as previously described[37] and incubated with 772 μM Ang I at 37 °C for 5 min. […] The imaging technique is described in detail elsewhere.

ACE = details: cited from earlier work
[7] = heparin plasma incubated 30 min at 37 °C, LC-MS/MS
[8] = ratio of equilibrium plasma levels
[9] = 4 hours prior to sampling, LC-MS/MS, mean ± s.e.m., n = 5
[10] = ratio of renal levels, 4 hours, mean ± s.e.m., n = 5
[11] = mouse kidney homogenate, Ang I spike, 37 °C, lisinopril 10 μM, LC-MS/MS, n = 4

Enzymatic contribution of ACE, Ang I to Ang II [1]: 25 ± 7%
Enzymatic contribution of NEP, Ang I to Ang-(1-7) [1]: 63 ± 10%
Enzymatic contribution of PEP, Ang I to Ang-(1-7) [1]: 10 ± 3%
Enzymatic contribution of chymase, Ang I to Ang II [1]: 2 ± 2%
Share of Ang I converted to Ang II [1]: 27 ± 9%
Share of Ang I converted to Ang-(1-7) [1]: 73 ± 9%
Enzymatic contribution of NEP, Ang I to Ang-(1-7) [2]: 50 ± 1%
Enzymatic contribution of PEP, Ang I to Ang-(1-7) [2]: 23 ± 1%
Share of Ang I converted directly to Ang-(1-7) [2]: 73.4 ± 2.1%
Share of Ang I metabolized to Ang II (ACE) [2]: 26.6 ± 2.1%
Compound: DRVYIHPFHL [Ang I, angiotensin I]

Compound: C[C@H](C[C@@H](Cc1ccc(-c2ccccc2)cc1)NC(=O)CCC(=O)O)C(=O)O [LBQ657]
Equilibrium plasma Ang I [3, 7]: 970 ± 341 pg/mL
Equilibrium plasma Ang II [3, 7]: 1423 ± 540 pg/mL
Equilibrium plasma Ang-(1-5) [3, 7]: 73 ± 34 pg/mL
Equilibrium plasma Ang-(1-7) [3, 7]: 20 ± 7 pg/mL
Equilibrium plasma Ang-(2-8) [3, 7]: 269 ± 91 pg/mL
Equilibrium plasma Ang-(3-8) [3, 7]: 114 ± 36 pg/mL
Equilibrium plasma Ang-(1-7)/Ang I (x100) [3, 8]: 1.8 ± 0.2
Equilibrium plasma Ang-(1-7)/Ang II (x100) [3, 8]: 1.5 ± 0.2
Renal Ang I [4, 9]: 277 ± 31 pg/g
Renal Ang II [4, 9]: 642 ± 99 pg/g
Renal Ang-(1-7) [4, 9]: 35 ± 4 pg/g
Renal Ang-(1-9) [4, 9]: 162 ± 10 pg/g
Renal Ang-(2-8) [4, 9]: 195 ± 28 pg/g
Renal Ang-(2-10) [4, 9]: 89 ± 16 pg/g
Reduction of Ang-(1-7) levels in the murine kidney ([4]; 4 hours prior to sampling, LC-MS/MS, p = 0.026): 53.1 ± 10.6%
Renal Ang-(1-7)/Ang I (x100) [4, 10]: 13.4 ± 2.0
Renal Ang-(1-7)/Ang II (x100) [4, 10]: 6.1 ± 1.2

Effect on Ang-(1-7) formation from Ang II, ACE2 KO kidney ([5]; ACE2 KO mouse kidney homogenate in PBS, MLN-4760 10 μM, aminopeptidase inhibitor 10 μM in all samples): no effect
Compound: CC(C)C[C@H](N[C@@H](Cc1cncn1Cc1cc(Cl)cc(Cl)c1)C(=O)O)C(=O)O [MLN-4760]
Effect on Ang-(1-7) formation from Ang II, wild-type kidney ([5]; wild-type mouse kidney homogenate in PBS, MLN-4760 10 μM): reduced Ang-(1-7) formation in wild-type mice to the level of ACE2 KOs

Compound: O=C[C@@H]1CCCN1C(=O)[C@@H]1CCCN1C(=O)OCc1ccccc1 [ZPP, N-benzyloxycarbonyl-prolyl-prolinal] (Cbz-Pro-Pro-aldehyde)
Effect on Ang-(1-7) formation from Ang II, ZPP added to MLN-4760 ([5]; mouse kidney homogenate, ZPP 20 μM in addition to MLN-4760 10 μM): abolished Ang-(1-7) formation completely
Effect on Ang-(1-7) formation from Ang I, ZPP on top of lisinopril and DL-thiorphan ([2]; mouse kidney homogenate, Ang I spike, 37 °C, ZPP 20 μM, LC-MS/MS, n = 4): further significantly reduced Ang-(1-7) formation

Compound: CC(C)C[C@H](NC(=O)[C@@H](NC(=O)N[C@@H](Cc1ccccc1)C(=O)O)[C@@H]1CCN=C(N)N1)C(=O)N[C@H](C=O)Cc1ccccc1 [chymostatin]
Effect on ACE independent Ang II formation from Ang I ([1]; human kidney biopsy homogenate, Ang I spike, 37 °C, chymostatin 10 μM, LC-MS/MS, n = 5): At least a part of ACE independent Ang II formation was blocked

Compound: CCOC(=O)[C@H](C)C[C@@H](Cc1ccc(-c2ccccc2)cc1)NC(=O)CCC(=O)O [AHU-377]
Activation of the prodrug (CES1): physiologically activated in the liver by CES1

Enzymatic contribution of ACE2, Ang II to Ang-(1-7) [6]: 88.2 ± 4.3%
Compound: CC[C@H](C)[C@H](NC(=O)[C@H](Cc1ccc(O)cc1)NC(=O)[C@@H](NC(=O)[C@H](CCCNC(=N)N)NC(=O)[C@@H](N)CC(=O)O)C(C)C)C(=O)N[C@@H](Cc1cnc[nH]1)C(=O)N1CCC[C@H]1C(=O)N[C@@H](Cc1ccccc1)C(=O)O [Ang II, angiotensin II]

Effect on Ang II formation from Ang I [2, 11]: efficiently blocked
Effect on Ang-(1-7) formation from Ang I [2, 11]: remained unaffected
Compound: NCCCC[C@H](N[C@@H](CCc1ccccc1)C(=O)O)C(=O)N1CCC[C@H]1C(=O)O [lisinopril]
Effect on Ang II formation from Ang I ([1]; human kidney biopsy homogenate, Ang I spike, 37 °C, lisinopril 10 μM, LC-MS/MS, n = 5): not able to completely abolish Ang II formation
Ang-(1-7) signal with increasing inhibitor concentration (NEP; murine kidney slices incubated with Ang I, lisinopril 0 μM–10 μM, MALDI-Imaging): concentration dependent increase of Ang-(1-7)

Compound: O=C(O)CNC(=O)C(CS)Cc1ccccc1 (racemic) [DL-thiorphan]
Effect on turnover from Ang I to Ang-(1-7) ([1]; human kidney biopsy homogenate, DL-thiorphan 100 μM with lisinopril 10 μM, n = 5): reduced significantly
Effect on Ang-(1-7) formation from Ang I, MALDI-Imaging intensity (NEP; murine kidney cryo-sections, 772 μM Ang I, 37 °C, 5 min, 100 μM DL-thiorphan in presence of 10 μM lisinopril, n = 4, p = 0.045 vs. 10 μM lisinopril): significant reduction of Ang-(1-7) formation from Ang I
Reduction of Ang-(1-7) formation from Ang I ([2]; mouse kidney homogenate, Ang I spike, 37 °C, DL-thiorphan 100 μM used only in combination with lisinopril 10 μM, LC-MS/MS): 75.2 ± 1.8%
Effect on turnover from Ang I to Ang-(1-7) ([2]; mouse kidney homogenate, DL-thiorphan 100 μM with lisinopril 10 μM, n = 4): reduced significantly
ACE inhibitory activity (ACE): weak ACE inhibitory activity
